Literature values, collected in patent US20210251886A1, “ORAL MUCOSAL DELIVERY SYSTEMS COMPRISING MONOPHASIC CONCENTRATE OF TERIPARATIDE” (ZIM LABORATORIES LIMITED, priority 2018, published 2021).
Read-outs that look alike come from different tables or passages of the source.

Conditions: dogs

bioavailability (buccal route): about 3.3%
bioavailability (oral route): 4.8%
SMILES: CC[C@H](C)[C@H](NC(=O)[C@H](CCC(=O)O)NC(=O)[C@H](CO)NC(=O)[C@@H](NC(=O)[C@@H](N)CO)C(C)C)C(=O)N[C@@H](CCC(N)=O)C(=O)N[C@@H](CC(C)C)C(=O)N[C@@H](CCSC)C(=O)N[C@@H](Cc1cnc[nH]1)C(=O)N[C@@H](CC(N)=O)C(=O)N[C@@H](CC(C)C)C(=O)NCC(=O)N[C@@H](CCCCN)C(=O)N[C@@H](Cc1cnc[nH]1)C(=O)N[C@@H](CC(C)C)C(=O)N[C@@H](CC(N)=O)C(=O)N[C@@H](CO)C(=O)N[C@@H](CCSC)C(=O)N[C@@H](CCC(=O)O)C(=O)N[C@@H](CCCN=C(N)N)C(=O)N[C@H](C(=O)N[C@@H](CCC(=O)O)C(=O)N[C@@H](Cc1c[nH]c2ccccc12)C(=O)N[C@@H](CC(C)C)C(=O)N[C@@H](CCCN=C(N)N)C(=O)N[C@@H](CCCCN)C(=O)N[C@@H](CCCCN)C(=O)N[C@@H](CC(C)C)C(=O)N[C@@H](CCC(N)=O)C(=O)N[C@@H](CC(=O)O)C(=O)N[C@H](C(=O)N[C@@H](Cc1cnc[nH]1)C(=O)N[C@@H](CC(N)=O)C(=O)N[C@@H](Cc1ccccc1)C(=O)O)C(C)C)C(C)C [PTH (1-34)]
